Assays:
Boophilus microplus = test: In vitro effect on Boophilus microplus (Example B9); conditions: ranking among test substances
Protocol: Example B9: In vitro effect on Boophilus microplus
Four test series each of 10 engorged female adults of Boophilus microplus are stuck to a plastic plate and covered for 1 hour with a wad of cottonwool soaked with an aqueous suspension or emulsion of the test substance. The test is carried out with concentrations of 100, 32, 10, 3.2, 1.0 and 0.32 ppm. The wad of cottonwool is then removed, and the ticks are incubated for 28 days for the eggs to be laid. The effect on Boophilus microplus is assessed according to the following 5 criteria:
1. Number of dead females (immobile with black discoloration) before egg deposition;
2. Number of ticks surviving for several days, but no eggs laid;
3. Number of cases in which eggs are laid, but nothing is hatched;
5. […] The compounds of formula (I) in this test show the effect described under point 4. […] Even at 1 ppm, a 60 to 90% suppression of the hatching rate is observed.
This test is carried out with both the BIARRA and the ULAM strain, and the results in both cases are identical.

[1] = system: Panonychus ulmi (resistant to organophosphates und carbaryl); test: Effect on Panonychus ulmi (Example B8); assay type: in vivo; conditions: apple seedlings sprayed with 400 ppm, after 14 days
Protocol: Example B8: Effect on Panonychus ulmi (resistant to organophosphates und carbaryl)
Apple seedlings are inoculated with adult females of Panonychus ulmi. After seven days, the infected plants are sprayed with an aqueous emulsion containing 400 ppm of the test compound until they are dripping wet, and cultivated in the greenhouse. After 14 days, they are evaluated. The percentage reduction of the population (% response) is determined by comparing the number of dead mites on the treated plants with those on the untreated plants.

Heliothis virescens [2] = test: Ovocidal/larvicidal effect on Heliothis virescens (Example B6); assay type: in vivo; conditions: eggs on cotton sprayed with 400 ppm, after 8 days
Description: Example B6: Ovocidal/larvicidal effect on Heliothis virescens
Eggs of Heliothis virescens laid on cotton are sprayed with an aqueous emulsion containing 400 ppm of active ingredient. After 8 days, the percentage hatching rate of the eggs and the survival rate of the caterpillars are compared with those for untreated controls (% reduction of population)

Dermanyssus gallinae = test: In vitro effect on Dermanyssus gallinae (Example B10); conditions: ranking among test substances
Protocol: Example B10: In vitro effect on Dermanyssus gallinae
Ten engorged female mites of the genus Dermanyssus gallinae fixed on a plastic adhesive film are brought into contact with 50 μl of an aqueous suspension or emulsion of the test substance. The test is carried out with concentrations of 32, 10, 3.2, 1.0, 0.32 to 0.0001 ppm. After drying, the film is stuck onto a glass disc. This creates a kind of air bubble around each mite, the lower surface of which is formed by the glass disc and the upper surface by a bulging of the adhesive film. This bubble contains sufficient air for the mite to avoid suffocating. After 5 days, the effect of the test substance is evaluated with the aid of a stereomicroscope by assessing the effect on mortality, egg deposition, egg quality, hatching rate, pupation rate, and development of protonymphs according to the following 4 criteria:
1. if 9 to 10 mites are dead, this indicates a lethal effect;
3. if 2 or more mites survive and produce eggs, but no larvae hatch from these eggs and no protonymphs develop, this indicates a development-inhibiting effect;
4. if 2 or more mites survive and lay the usual number of normal eggs, from which larvae hatch and develop into protonymphs, this indicates no activity.

[3] = system: Plutella xylostella caterpillars; test: Effect on Plutella xylostella caterpillars (Example B5); assay type: in vivo; conditions: cabbage plants sprayed with 400 ppm, third stage caterpillars, three days later
Protocol: Example B5: Effect on Plutella xylostella caterpillars
(§1) Young cabbage plants are sprayed with an aqueous emulsion containing 400 ppm of active ingredient. After drying of the spray deposit, the cabbage plants are inoculated with 10 third stage caterpillars of Plutella xylostella and transferred to a plastic container. Three days later they are evaluated. The percentage reduction of the population (% response) is determined by comparing the number of dead caterpillars and the extent of feeding damage on the treated plants with those on the untreated plants.

[4] = system: Diabrotica balteata larvae; test: Effect on Diabrotica balteata larvae (Example B2); assay type: in vivo; conditions: corn seedlings sprayed with 400 ppm, second stage larvae, six days later
Protocol: Example B2: Effect on Diabrotica balteata larvae
Corn seedlings are sprayed with an aqueous emulsion containing 400 ppm of active ingredient. After drying of the spray deposit, the corn seedlings are inoculated with 10 second stage larvae of Diabrotica balteata and transferred to a plastic container. Six days later they are evaluated. The percentage reduction of the population (% response) is determined by comparing the number of dead larvae on the treated plants with those on the untreated plants.

Tetranychus urticae [5] = test: Ovicidal effect on Tetranychus urticae (Example B7); assay type: in vivo; conditions: bean plants colonized with eggs sprayed with 400 ppm, 6 days at 25° C.
Protocol: Example B7: Ovicidal effect on Tetranychus urticae
(§2) Young bean plants are inoculated with females of Tetranychus urticae, which are removed again after 24 hours. The plants colonized with eggs are sprayed with an aqueous emulsion containing 400 ppm of active ingredient. The plants are incubated for 6 days at 25° C. and then evaluated. The percentage reduction of the population (% response) is determined by comparing the number of dead eggs, larvae, and adults on the treated plants with those on the untreated plants.

[6] = system: Heliothis virescens caterpillars; test: Effect on Heliothis virescens caterpillars (Example B4); assay type: in vivo; conditions: soya plants sprayed with 400 ppm, first stage caterpillars, six days later
Protocol: Example B4: Effect on Heliothis virescens caterpillars
as §1, with “soya” for “cabbage”, “first” for “third”, “Heliothis virescens” for “Plutella xylostella”, “Six” for “Three”

Heliothis virescens [7] = test: Ovicidal effect on Heliothis virescens (Example B1); assay type: in vivo; conditions: eggs immersed in 400 ppm test solution, after 6 days, vs untreated controls
Protocol: Example B1: Ovicidal effect on Heliothis virescens
Eggs of Heliothis virescens laid on filter paper are immersed for a short time in an acetonic aqueous test solution containing 400 ppm of the active ingredient to be tested. After drying of the test solution, the eggs are incubated in Petri dishes. After 6 days, the percentage hatching rate of the eggs is compared with that for untreated controls (% reduction in hatching rate).

Tetranychus urticae [8] = test: Effect on Tetranychus urticae (Example B3); assay type: in vivo; conditions: bean plants, mixed population, sprayed with 400 ppm, 6 days at 25° C.
Protocol: Example B3: Effect on Tetranychus urticae
as §2, with “a mixed population” for “females”, “urticae and, one day later,” for “urticae, which are removed again after 24 hours. The plants colonized with eggs”, “plants. The instantly claimed compounds show good efficacy against Tetranychus urticae in this test.” for “plants.”

Fc1cccc(F)c1C1=NC(c2ccc(-c3ccc(C(F)(F)F)cc3)cc2)CO1 (stereo not shown) [Example H1-5, 2-(2,6-Difluorophenyl)-4-(4′-trifluoromethylbiphenyl-4-yl)-4,5-dihydro-oxazole]
most active test substance: activity compared with the other test substances (Boophilus microplus) | activity compared with the other test substances (Dermanyssus gallinae)
more than 80%: percentage reduction of the population (% response) [1] | % reduction of population (hatching rate of eggs and survival rate of caterpillars) (Heliothis virescens [2]) | percentage reduction of the population (% response) [3] | percentage reduction of the population (% response) [4] | percentage reduction of the population (% response) (Tetranychus urticae [5]) | percentage reduction of the population (% response) [6] | % reduction in hatching rate (Heliothis virescens [7]) | percentage reduction of the population (% response) (Tetranychus urticae [8])
